In patent US9624205B2, “Substituted 6,5-fused bicyclic heteroaryl compounds” (Epizyme, Inc., priority 2013, dated 2017) one finds IC50 data, which are given here for 5 compounds.

The target of test [1] is wild-type PRC2 enzyme (WT EZH2) (Homo sapiens (Human), UniProt Q15910). In words: PRC2 enzyme assay on peptide substrate, wild-type EZH2. Type of test: biochemical. Conditions: wild-type PRC2, H3K27me0 peptide substrate. The source says: (§1) Protocol for Wild-Type and Mutant PRC2 Enzyme Assays
wild-type PRC2 enzyme (WT EZH2), sequence (Q15910 whole entry, the tested form may be a part): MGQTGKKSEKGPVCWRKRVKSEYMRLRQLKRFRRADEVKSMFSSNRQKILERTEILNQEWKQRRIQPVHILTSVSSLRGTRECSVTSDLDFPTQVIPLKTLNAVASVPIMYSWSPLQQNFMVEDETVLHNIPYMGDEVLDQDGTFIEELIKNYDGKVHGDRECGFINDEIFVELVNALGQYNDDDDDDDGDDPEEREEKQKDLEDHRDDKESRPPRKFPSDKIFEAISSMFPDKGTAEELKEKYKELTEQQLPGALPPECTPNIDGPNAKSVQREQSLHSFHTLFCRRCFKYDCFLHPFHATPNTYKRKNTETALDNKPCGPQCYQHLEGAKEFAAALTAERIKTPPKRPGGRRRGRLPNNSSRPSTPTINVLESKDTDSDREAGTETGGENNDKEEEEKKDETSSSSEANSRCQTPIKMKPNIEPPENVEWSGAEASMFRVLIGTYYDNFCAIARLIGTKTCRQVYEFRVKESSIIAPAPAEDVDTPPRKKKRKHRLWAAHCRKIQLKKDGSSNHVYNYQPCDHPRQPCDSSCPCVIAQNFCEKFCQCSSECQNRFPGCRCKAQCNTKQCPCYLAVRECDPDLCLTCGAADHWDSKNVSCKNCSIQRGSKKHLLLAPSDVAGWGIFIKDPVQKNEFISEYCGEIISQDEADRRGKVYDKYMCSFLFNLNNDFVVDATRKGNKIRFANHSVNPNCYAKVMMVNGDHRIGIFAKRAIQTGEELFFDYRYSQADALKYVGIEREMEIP
wild-type PRC2 enzyme (WT EZH2), sequence (O75530 whole entry partner, the tested form may be a part): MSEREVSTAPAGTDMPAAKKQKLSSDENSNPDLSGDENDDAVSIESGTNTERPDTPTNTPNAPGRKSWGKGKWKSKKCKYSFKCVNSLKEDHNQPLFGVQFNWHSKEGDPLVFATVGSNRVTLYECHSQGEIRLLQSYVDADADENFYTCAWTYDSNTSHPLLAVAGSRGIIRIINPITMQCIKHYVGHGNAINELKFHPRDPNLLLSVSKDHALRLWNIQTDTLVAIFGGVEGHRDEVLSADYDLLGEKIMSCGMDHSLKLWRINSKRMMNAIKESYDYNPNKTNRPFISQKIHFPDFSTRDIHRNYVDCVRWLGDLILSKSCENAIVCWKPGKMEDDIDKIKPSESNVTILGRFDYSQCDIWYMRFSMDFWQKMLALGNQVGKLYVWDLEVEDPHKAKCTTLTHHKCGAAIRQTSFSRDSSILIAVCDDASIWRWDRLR
wild-type PRC2 enzyme (WT EZH2), sequence (Q15022 whole entry partner, the tested form may be a part): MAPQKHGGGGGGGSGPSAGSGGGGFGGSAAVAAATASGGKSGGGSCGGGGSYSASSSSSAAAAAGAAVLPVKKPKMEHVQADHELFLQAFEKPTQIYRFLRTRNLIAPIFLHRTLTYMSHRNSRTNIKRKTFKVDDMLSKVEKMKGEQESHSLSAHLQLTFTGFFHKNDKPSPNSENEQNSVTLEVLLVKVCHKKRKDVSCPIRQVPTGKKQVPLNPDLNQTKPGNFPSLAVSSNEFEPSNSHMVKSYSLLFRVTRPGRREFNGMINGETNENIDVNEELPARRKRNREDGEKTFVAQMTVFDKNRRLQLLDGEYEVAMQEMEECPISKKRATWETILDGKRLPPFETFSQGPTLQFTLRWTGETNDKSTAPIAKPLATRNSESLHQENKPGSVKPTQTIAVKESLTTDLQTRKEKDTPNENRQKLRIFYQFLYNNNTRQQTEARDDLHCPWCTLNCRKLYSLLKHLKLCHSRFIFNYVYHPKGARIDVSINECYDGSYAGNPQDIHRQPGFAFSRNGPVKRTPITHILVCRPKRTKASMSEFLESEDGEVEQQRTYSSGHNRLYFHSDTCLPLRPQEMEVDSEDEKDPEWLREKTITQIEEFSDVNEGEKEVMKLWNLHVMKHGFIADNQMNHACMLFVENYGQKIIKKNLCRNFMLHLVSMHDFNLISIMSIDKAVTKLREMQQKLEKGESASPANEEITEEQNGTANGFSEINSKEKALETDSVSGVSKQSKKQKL
wild-type PRC2 enzyme (WT EZH2), sequence (Q09028 whole entry partner, the tested form may be a part): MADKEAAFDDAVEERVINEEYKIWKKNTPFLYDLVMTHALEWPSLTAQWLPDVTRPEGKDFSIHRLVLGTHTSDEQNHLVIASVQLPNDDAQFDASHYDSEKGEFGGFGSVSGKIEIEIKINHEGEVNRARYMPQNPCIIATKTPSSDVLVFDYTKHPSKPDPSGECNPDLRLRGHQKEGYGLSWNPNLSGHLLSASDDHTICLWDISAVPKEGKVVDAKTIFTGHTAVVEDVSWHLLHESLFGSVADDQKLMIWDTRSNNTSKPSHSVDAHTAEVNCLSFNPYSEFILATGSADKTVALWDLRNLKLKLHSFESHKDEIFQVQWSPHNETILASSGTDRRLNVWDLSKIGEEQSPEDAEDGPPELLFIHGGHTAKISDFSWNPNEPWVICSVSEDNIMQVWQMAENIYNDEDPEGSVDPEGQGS
(§2) Peptides representative of human histone H3 residues 21-44 containing either an unmodified lysine 27 (H3K27me0) or dimethylated lysine 27 (H3K27me2) are synthesized with a C-terminal G(K-biotin) linker-affinity tag motif and a C-terminal amide cap by 21st Century Biochemicals. […] The sequences are listed below.
(§3) Human PRC2 enzymes are purified as 4-component enzyme complexes co-expressed in Spodoptera frugiperda (sf9) cells using a baculovirus expression system. […] The EED subunit contains an N-terminal FLAG tag that is used to purify the entire 4-component complex from sf9 cell lysates.
(§4) The assays are all performed in a buffer consisting of 20 mM bicine (pH=7.6), 0.5 mM DTT, 0.005% BSG and 0.002% Tween20, prepared on the day of use. Compounds in 100% DMSO (1 μL) are spotted into polypropylene 384-well V-bottom plates (Greiner) using a Platemate 2×3 outfitted with a 384-channel pipet head (Thermo). DMSO (1 μL) is added to columns 11, 12, 23, 24, rows A-H for the maximum signal control, and SAH, a known product and inhibitor of PRC2 (1 μL) is added to columns 11, 12, 23, 24, rows I-P for the minimum signal control. A cocktail (4 μL) containing the wild-type PRC2 enzyme and H3K27me0 peptide or any of the Y641 mutant enzymes and H3K27me2 peptide is added by Multidrop Combi (Thermo). The compounds are allowed to incubate with PRC2 for 30 min at 25° C., then a cocktail (10 μL) containing a mixture of non-radioactive and ^3H-SAM is added to initiate the reaction (final volume=[…]). In all cases, the final concentrations are as follows: wild-type or mutant PRC2 enzyme was 4 nM, SAH in the minimum signal control wells was 1 mM and the DMSO concentration was 1%. The assays are stopped by the addition of non-radioactive SAM (10 μL) to a final concentration of 600 μM, which dilutes the ^3H-SAM to a level where its incorporation into the peptide substrate is no longer detectable. 5 μL of the reaction in the 384-well polypropylene plate is then transferred to a 384-well Flashplate and the biotinylated peptides are allowed to bind to the streptavidin surface for at least 1 h before being washed three times with 0.1% Tween20 in a Biotek ELx405 plate washer. The plates are then read in a PerkinElmer TopCount platereader to measure the quantity of ^3H-labeled peptide bound to the Flashplate surface, measured as disintegrations per minute (dpm) or alternatively, referred to as counts per minute (cpm).
(§5) Where top and bottom are the normally allowed to float, but may be fixed at 100 or 0 respectively in a 3-parameter fit. The Hill Coefficient normally allowed to float but may also be fixed at 1 in a 3-parameter fit. Y is the % inhibition and X is the compound concentration.

The target in test [2] is Y641F mutant PRC2 enzyme (EZH2 Y641F) (Homo sapiens (Human), UniProt Q15910, Y641F). In words: PRC2 enzyme assay on peptide substrate, EZH2 Y641F mutant. It is filed as biochemical. Conditions: EZH2 Y641F PRC2, H3K27me2 peptide substrate.
Y641F mutant PRC2 enzyme (EZH2 Y641F), sequence (Q15910 whole entry Y641F): as the sequence (Q15910 whole entry, the tested form may be a part) above, with Y641F counted along it
Y641F mutant PRC2 enzyme (EZH2 Y641F), sequence (O75530 whole entry partner): as the sequence (O75530 whole entry partner, the tested form may be a part) above
Y641F mutant PRC2 enzyme (EZH2 Y641F), sequence (Q15022 whole entry partner): as the sequence (Q15022 whole entry partner, the tested form may be a part) above
Y641F mutant PRC2 enzyme (EZH2 Y641F), sequence (Q09028 whole entry partner): as the sequence (Q09028 whole entry partner, the tested form may be a part) above
Source text: as §1, §2, §3, §4, §5

Usually IC50 stands for the point on the concentration scale where inhibition reaches its midpoint. High values mean a need for much substance, low ones inhibition by little substance.

As for `COc1nn(C)c(C)c1CNC(=O)c1c(C)n(C(C)C2CCOCC2)c2ccccc12` (stereo not shown) [Compound 1, N-((3-methoxy-1,5-dimethyl-1H-pyrazol-4-yl)methyl)-2-methyl-1-(1-(tetrahydro-2H-pyran-4-yl)ethyl)-1H-indole-3-carboxamide], the IC50 in test [1] is above 50 µM; in test [2], 28 µM.
Turning to `Cc1c(CNC(=O)c2c(C)n(C(C)C3CCOCC3)c3ccccc23)c(=O)[nH]n1C` (stereo not shown) [Compound 2, N-((1,5-dimethyl-3-oxo-2,3-dihydro-1H-pyrazol-4-yl)methyl)-2-methyl-1-(1-(tetrahydro-2H-pyran-4-yl)ethyl)-1H-indole-3-carboxamide], the IC50 in test [1] and in test [2] was above 50 µM each time.
Turning to `CCC(C)n1cc(C)c2c(C(=O)NCc3c(OC)nn(C)c3C)cc(-c3ccc(N4CCNCC4)nc3)cc21` (stereo not shown) [Compound 3, 1-(sec-butyl)-N-((3-methoxy-1,5-dimethyl-1H-pyrazol-4-yl)methyl)-3-methyl-6-(6-(piperazin-1-yl)pyridin-3-yl)-1H-indole-4-carboxamide], the IC50 in test [1] amounted to 4.33 µM; in test [2], 0.548 µM.
In the case of `CCC(C)n1cc(C)c2c(C(=O)NCc3c(C)n(C)[nH]c3=O)cc(-c3ccc(N4CCNCC4)nc3)cc21` (stereo not shown) [Compound 4, 1-(sec-butyl)-N-((1,5-dimethyl-3-oxo-2,3-dihydro-1H-pyrazol-4-yl)methyl)-3-methyl-6-(6-(piperazin-1-yl)pyridin-3-yl)-1H-indole-4-carboxamide], the figures for the IC50 in test [1] and in test [2] were 5.63 µM and 1.1 µM, respectively.
On the same counts, the results for `CCC(C)n1cc(C)c2c(C(=O)NCc3c(OC)nn(CC)c3C)cc(-c3ccc(N4CCNCC4)nc3)cc21` (stereo not shown) [Compound 5, 1-(sec-butyl)-N-((1-ethyl-3-methoxy-5-methyl-1H-pyrazol-4-yl)methyl)-3-methyl-6-(6-(piperazin-1-yl)pyridin-3-yl)-1H-indole-4-carboxamide] are 22 µM and 1.99 µM.
